The target of experiment [1] is T1, Human Calpain 1/NS1 (Homo sapiens, UniProt P07384).
T1 sequence (P07384 1-714): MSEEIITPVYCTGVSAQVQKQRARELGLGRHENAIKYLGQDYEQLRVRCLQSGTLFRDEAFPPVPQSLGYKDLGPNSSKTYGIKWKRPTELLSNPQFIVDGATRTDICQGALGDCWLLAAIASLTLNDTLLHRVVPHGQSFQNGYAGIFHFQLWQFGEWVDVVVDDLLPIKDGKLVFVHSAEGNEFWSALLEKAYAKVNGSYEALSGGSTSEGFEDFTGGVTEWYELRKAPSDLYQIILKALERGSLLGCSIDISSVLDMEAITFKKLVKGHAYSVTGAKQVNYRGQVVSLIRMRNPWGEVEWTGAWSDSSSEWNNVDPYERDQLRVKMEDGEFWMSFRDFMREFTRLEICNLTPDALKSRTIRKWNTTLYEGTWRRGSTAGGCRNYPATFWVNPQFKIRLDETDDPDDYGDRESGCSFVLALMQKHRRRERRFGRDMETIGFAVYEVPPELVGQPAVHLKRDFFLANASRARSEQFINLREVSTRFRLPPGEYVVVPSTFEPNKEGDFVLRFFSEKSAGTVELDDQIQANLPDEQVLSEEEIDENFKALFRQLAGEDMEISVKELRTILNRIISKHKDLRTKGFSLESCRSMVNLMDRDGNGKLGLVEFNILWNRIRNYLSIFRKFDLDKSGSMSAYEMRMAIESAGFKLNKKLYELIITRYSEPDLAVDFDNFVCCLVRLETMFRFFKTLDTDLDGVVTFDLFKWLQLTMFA
T1 sequence (P04632 1-268 partner): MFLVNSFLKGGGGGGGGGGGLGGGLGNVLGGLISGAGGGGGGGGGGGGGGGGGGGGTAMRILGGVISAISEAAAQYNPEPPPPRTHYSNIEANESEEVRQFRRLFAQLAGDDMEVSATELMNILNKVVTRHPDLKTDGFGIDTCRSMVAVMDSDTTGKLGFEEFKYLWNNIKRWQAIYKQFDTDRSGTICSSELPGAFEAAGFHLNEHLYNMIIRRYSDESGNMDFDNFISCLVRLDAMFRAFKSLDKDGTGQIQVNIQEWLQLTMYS
The experiment is described as follows: Biochemical inhibition of calpain 1, continuous fluorescence (FRET substrate) assay. To be noted: mean, read-out: Human Calpain 1/NS1 IC50 (nM)_MEAN. The gist of the method:
(§1)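 IC50 values come from 4-parameter fits of progress-curve rates (1-5 min slopes) against log inhibitor concentration. Calpain and inhibitor premixed at ambient 25C in Tris pH ~7.5/NaCl/DTT buffer, then CaCl2 and FRET substrate added to activate; 5-FAM fluorescence (ex 490/em 520) followed 10 min.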

Experiment [2] has as its target T2, Human Calpain 2/NS1 (Homo sapiens, UniProt P17655).
T2 sequence (P17655 1-700): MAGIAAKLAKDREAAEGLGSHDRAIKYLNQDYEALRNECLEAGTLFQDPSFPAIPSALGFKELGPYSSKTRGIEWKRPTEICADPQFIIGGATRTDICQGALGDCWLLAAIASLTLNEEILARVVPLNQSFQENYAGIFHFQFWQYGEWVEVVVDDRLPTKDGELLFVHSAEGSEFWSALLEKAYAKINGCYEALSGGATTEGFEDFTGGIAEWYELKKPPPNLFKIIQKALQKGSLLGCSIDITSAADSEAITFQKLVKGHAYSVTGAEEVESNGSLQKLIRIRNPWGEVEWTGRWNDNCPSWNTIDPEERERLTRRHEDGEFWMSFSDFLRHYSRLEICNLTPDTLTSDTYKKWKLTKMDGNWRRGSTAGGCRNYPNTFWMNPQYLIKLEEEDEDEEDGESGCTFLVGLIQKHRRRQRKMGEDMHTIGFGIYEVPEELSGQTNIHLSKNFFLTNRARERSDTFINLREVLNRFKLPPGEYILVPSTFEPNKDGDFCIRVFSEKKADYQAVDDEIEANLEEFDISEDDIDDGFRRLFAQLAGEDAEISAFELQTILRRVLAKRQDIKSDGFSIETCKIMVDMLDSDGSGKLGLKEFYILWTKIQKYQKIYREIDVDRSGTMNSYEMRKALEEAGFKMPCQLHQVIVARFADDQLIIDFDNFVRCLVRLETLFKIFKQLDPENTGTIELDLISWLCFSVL
T2 sequence (P04632 1-268 partner): T1 sequence (P04632 1-268 partner)
Nature of the experiment: Biochemical inhibition of calpain 2, continuous fluorescence (FRET substrate) assay. The conditions noted are these: mean, read-out: Human Calpain 2/NS1 IC50 (nM)_MEAN. Summed up:
as §1

Experiment [3] has as its target T3, Human Calpain 9/NS1 (Homo sapiens, UniProt O14815).
T3 sequence (O14815 1-690): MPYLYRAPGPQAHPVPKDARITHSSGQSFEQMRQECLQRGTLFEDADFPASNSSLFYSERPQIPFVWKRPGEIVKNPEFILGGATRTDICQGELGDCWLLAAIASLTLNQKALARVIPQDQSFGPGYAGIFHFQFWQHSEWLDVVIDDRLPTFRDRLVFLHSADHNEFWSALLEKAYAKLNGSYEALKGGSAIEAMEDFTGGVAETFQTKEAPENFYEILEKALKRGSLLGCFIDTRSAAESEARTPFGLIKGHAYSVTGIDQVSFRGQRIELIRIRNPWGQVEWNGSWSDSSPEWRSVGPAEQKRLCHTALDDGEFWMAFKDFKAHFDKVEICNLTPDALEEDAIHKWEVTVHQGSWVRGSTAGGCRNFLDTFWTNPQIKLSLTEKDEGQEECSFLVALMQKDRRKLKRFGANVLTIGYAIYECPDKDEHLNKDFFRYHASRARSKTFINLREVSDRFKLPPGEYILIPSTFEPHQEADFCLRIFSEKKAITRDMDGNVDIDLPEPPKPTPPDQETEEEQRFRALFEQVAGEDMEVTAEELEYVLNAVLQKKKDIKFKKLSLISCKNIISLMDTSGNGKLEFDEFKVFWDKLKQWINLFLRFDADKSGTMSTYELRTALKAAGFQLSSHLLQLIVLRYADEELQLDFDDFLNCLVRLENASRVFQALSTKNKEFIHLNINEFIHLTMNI
T3 sequence (P04632 1-268 partner): T1 sequence (P04632 1-268 partner)
Nature of the experiment: Biochemical inhibition of calpain 9, continuous fluorescence (FRET substrate) assay. To be noted: mean, read-out: Human Calpain 9/NS1 IC50 (nM)_MEAN. The gist of the method:
as §1

For the compound `CCNC(=O)C(=O)[C@@H]1Cc2ccc(cc2)OC/C=C/COc2cccc(c2)-c2ccn(n2)-c2ncccc2C(=O)N1` [Compound 65, N-ethyl-2-oxo-2-((2^2E,6S,11E)-4-oxo-2^1H-9,14-dioxa-5-aza-3(2,3)-pyridina-2(3,1)-pyrazola-1(1,3),8(1,4)-dibenzenacyclotetradecaphan-11-en-6-yl)acetamide], the IC50 in experiment [1], in experiment [2] and in experiment [3] was less than 3000 nM each time.

For the compound `O=C(NC1CC1)C(=O)[C@@H]1Cc2ccc(cc2)OC/C=C/COc2cccc(c2)-c2ccn(n2)-c2ncccc2C(=O)N1` [Compound 70, N-cyclopropyl-2-oxo-2-((2^2E,6S,11E)-4-oxo-2^1H-9,14-dioxa-5-aza-3(2,3)-pyridina-2(3,1)-pyrazola-1(1,3),8(1,4)-dibenzenacyclotetradecaphan-11-en-6-yl)acetamide], the IC50 in experiment [1], in experiment [2] and in experiment [3] was less than 3000 nM each time.

Turning to `CCOC(=O)CCNC(=O)C(=O)[C@@H]1C/C=C\COCCOCc2ccccc2C(=O)N1` [Compound 60, Ethyl (S,Z)-3-(2-oxo-2-(12-oxo-1,3,4,6,9,10,11,12-octahydrobenzo[f][1,4]dioxa[9]azacyclotetradecin-10-yl)acetamido)propanoate], the IC50 in experiment [1], in experiment [2] and in experiment [3] was more than 10000 nM in each case.

As to `O=C(NCc1ccccc1)C(=O)[C@@H]1C/C=C/COCCOCc2ccccc2C(=O)N1` [Compound 4, (S,E)-N-benzyl-2-oxo-2-(12-oxo-1,3,4,6,9,10,11,12-octahydrobenzo[f][1,4]dioxa[9]azacyclotetradecin-10-yl)acetamide], the figures for the IC50 in experiment [1], in experiment [2] and in experiment [3] were more than 10000 nM, 3000 to 10000 nM and less than 3000 nM, respectively.

In the case of `O=C[C@@H]1Cc2cccc(c2)C=CCCOc2cccc(c2)-c2ncccc2C(=O)N1` [Compound 36, (S)-3-Oxo-12-oxa-4-aza-2(2,3)-pyridina-1,7(1,3)-dibenzenacyclododecaphan-8-ene-5-carbaldehyde], the IC50 in experiment [1], in experiment [2] and in experiment [3] was less than 3000 nM throughout.

On to `O=C(NCCc1cccc(Cl)c1)C(=O)C1CCCCOCCOCc2ccccc2C(=O)N1` (stereo not drawn) [Compound 89, N-(3-chlorophenethyl)-2-oxo-2-(12-oxo-1,3,4,6,7,8,9,10,11,12-decahydrobenzo[f][1,4]dioxa[9]azacyclotetradecin-10-yl)acetamide], for which the IC50 in experiment [1] is more than 10000 nM; in experiment [2] it was more than 10000 nM; in experiment [3], less than 3000 nM.

With `O=C[C@@H]1CCCCCOc2ccnc(n2)-c2ccccc2C(=O)N1` [Compound 139, (S)-3-oxo-11-oxa-4-aza-1(2,4)-pyrimidina-2(1,2)-benzena-cycloundecaphane-5-carbaldehyde], the IC50 in experiment [1], in experiment [2] and in experiment [3] was less than 3000 nM each time.

For `O=C(NCCc1ccccn1)C(=O)C1CCCCOCCOCc2ccccc2C(=O)N1` (stereo not drawn) [Compound 82, 2-Oxo-2-(12-oxo-1,3,4,6,7,8,9,10,11,12-decahydrobenzo[f][1,4]dioxa[9]aza-cyclotetradecin-10-yl)-N-(2-(pyridin-2-yl)ethyl)acetamide], the IC50 was more than 10000 nM in experiment [1], more than 10000 nM in experiment [2] and 3000 to 10000 nM in experiment [3].

Take `CCCCNC(=O)C(=O)[C@@H]1C/C=C/COCCOCc2ccccc2C(=O)N1` [Compound 64, (S,E)-N-butyl-2-oxo-2-(12-oxo-1,3,4,6,9,10,11,12-octahydrobenzo[f][1,4]dioxa[9]azacyclotetradecin-10-yl)acetamide]: the IC50 in experiment [1] is more than 10000 nM; in experiment [2], more than 10000 nM; in experiment [3], less than 3000 nM.

On to `CCOc1ccccc1CNC(=O)C(=O)C1CCCCOCCOCc2ccccc2C(=O)N1` (stereo not drawn) [Compound 102, N-(2-ethoxybenzyl)-2-oxo-2-(12-oxo-1,3,4,6,7,8,9,10,11,12-decahydrobenzo[f][1,4]dioxa[9]azacyclotetradecin-10-yl)acetamide], for which the IC50 is 3000 to 10000 nM in experiment [1], less than 3000 nM in experiment [2] and less than 3000 nM in experiment [3].

`NC(=O)C(=O)[C@@H]1CCCCCOc2cccc(c2)-c2ncccc2C(=O)N1` [Compound 130, (S)-2-oxo-2-(11-oxo-3-oxa-10-aza-1(2,3)-pyridina-2(1,3)-benzena-cycloundecaphane-9-yl)acetamide]: the IC50 in experiment [1], in experiment [2] and in experiment [3] was less than 3000 nM in each case.

For the compound `Cc1ccc(Cl)cc1CNC(=O)C(=O)C1CCCCOCCOCc2ccccc2C(=O)N1` (stereo not drawn) [Compound 108, N-(5-chloro-2-methylbenzyl)-2-oxo-2-(12-oxo-1,3,4,6,7,8,9,10,11,12-decahydrobenzo[f][1,4]dioxa[9]azacyclotetradecin-10-yl)acetamide], the results for the IC50 in experiment [1], in experiment [2] and in experiment [3] were more than 10000 nM, 3000 to 10000 nM and less than 3000 nM, respectively.

As for `O=C[C@@H]1CCCCCCOCc2ccccc2C(=O)N1` [Compound 42, (S)-11-Oxo-1,3,4,5,6,7,8,9,10,11-decahydrobenzo[c][1]oxa[6]azacyclotridecine-9-carbaldehyde], the IC50 in experiment [1] was more than 10000 nM; in experiment [2], less than 3000 nM; in experiment [3], less than 3000 nM.

For the compound `O=C(NC1CC1)C(=O)[C@@H]1Cc2ccc(cc2)OC/C=C/COc2ccc3c(cnn3-c3ncccc3C(=O)N1)c2` [Compound 69, N-cyclopropyl-2-oxo-2-((5S,E)-3-oxo-1^1H-8,13-dioxa-4-aza-1(1,5)-indazola-2(2,3)-pyridina-7(1,4)-benzenacyclotridecaphan-10-en-5-yl)acetamide], the IC50 is 3000 to 10000 nM in experiment [1], less than 3000 nM in experiment [2] and less than 3000 nM in experiment [3].

As to `C[C@@H](NC(=O)C(=O)C1CCCCOCCOCc2ccccc2C(=O)N1)c1cccnc1` (stereo partly drawn) [Compound 127, 2-Oxo-2-(12-oxo-1,3,4,6,7,8,9,10,11,12-decahydrobenzo[f][1,4]dioxa[9]aza-cyclotetradecin-10-yl)-N—((R)-1-(pyridin-3-yl)ethyl)acetamide], the IC50 in experiment [1], in experiment [2] and in experiment [3] was more than 10000 nM throughout.

The values are drawn from US11292801B2, “Calpain modulators and therapeutic uses thereof” (Blade Therapeutics, Inc., priority 2016, dated 2022).
